ChEMBL document CHEMBL1152970, “Optimization of a series of 2,4-diaminopyridines as neuropeptide Y Y1 receptor antagonists with reduced hERG activity” (Bioorg Med Chem Lett, 2009)

Experiments:
physchem = details: octanol/water, pH 7.4
Brain [1] = test: Drug level in C57BL/6 mouse brain at 30 mg/kg, ip after 30 mins; assay type: ADME, organism-based, C57BL6; set-up: dose 30 mg/kg, route intraperitoneal; details: in vivo, 0.5 h
[2] = Ratio of drug level in brain to plasma in C57BL/6 mouse at 30 mg/kg, ip after 30 mins; assay type: ADME, organism-based, C57BL6; set-up: dose 30 mg/kg, route intraperitoneal
[3] = Plasma concentration in C57BL/6 mouse plasma at 30 mg/kg, ip after 30 mins; assay type: ADME, organism-based, C57BL6; set-up: dose 30 mg/kg, route intraperitoneal
Brain [4] = test: Drug level in mdr1a deficient CF-1 mouse brain at 30 mg/kg, ip after 30 mins; assay type: ADME, organism-based; set-up: dose 30 mg/kg, route intraperitoneal; details: in vivo, 0.5 h
[5] = Ratio of drug level in brain to plasma in mdr1a deficient CF-1 mouse at 30 mg/kg, ip after 30 mins; assay type: ADME, organism-based; set-up: dose 30 mg/kg, route intraperitoneal; details: CF-1 (mdr1a deficient)
[6] = Plasma concentration in mdr1a deficient CF-1 mouse at 30 mg/kg, ip after 30 mins; assay type: ADME, organism-based; set-up: dose 30 mg/kg, route intraperitoneal; details: CF-1 (mdr1a deficient)

| SMILES | logD (physchem) | further results |
| --- | --- | --- |
| Cc1nc(SCc2cc(N3CCOCC3)cc(NCC#N)n2)n(C)c1C | 1 |  |
| CCc1oc(SCc2cc(N3CCOCC3)cc(NCC#N)n2)nc1C | 2.6 |  |
| CCc1oc(CCc2cc(N3CCOCC3)cc(NCC#N)n2)nc1C | 2.4 |  |
| CCc1oc(CCc2cc(N3CCOCC3)cc(NCC(F)(F)F)n2)nc1C | 3.5 |  |
| Cc1nc(OCc2cc(N3CCOCC3)cc(NCC#N)n2)oc1C | 2.1 |  |
| Cc1nc(SCc2cc(N3CCOCC3)cc(NCC#N)n2)sc1C | 2.4 | Drug uptake (Brain [1]): 0.9 nmol/g; Kp at 0.5 h [2]: 0.27; concentration at 0.5 h [3]: 3.4 µM; Drug uptake (Brain [4]): 4.7 nmol/g; Kp at 0.5 h [5]: 0.9; concentration at 0.5 h [6]: 5.2 µM |
| CCc1oc(CCc2cc(N3CCOCC3)cc(NCCC#N)n2)nc1C | 2 |  |
| CCOC(=O)CNc1cc(N2CCOCC2)cc(CCc2nc(C)c(CC)o2)n1 | 2.8 |  |
| Cc1nc(SCc2cc(N3CCOCC3)cc(NCC#N)n2)oc1C | 2 |  |
| CCc1sc(CCc2cc(N3CCOCC3)cc(NC(C)c3cc(Cl)cc(NC(=O)OC(C)C)c3)n2)nc1C (stereo unspecified) | > 4 |  |

Continued, in another order:

| logD (physchem) | SMILES | further results |
| --- | --- | --- |
| 2.4 | CCc1oc(CCc2cc(N3CCOCC3)cc(NC(C)C)n2)nc1C |  |
| 2.5 | CCCNc1cc(N2CCOCC2)cc(CCc2nc(C)c(CC)o2)n1 |  |
| 2.3 | CCc1oc(CCc2cc(N3CCOCC3)cc(NC(C)=O)n2)nc1C |  |
| 2.2 | CCNc1cc(N2CCOCC2)cc(CCc2nc(C)c(CC)o2)n1 |  |
| 1.7 | CCc1oc(CCc2cc(N3CCOCC3)cc(NC)n2)nc1C |  |
